Broadly, the IC50 is the concentration needed to halve the response being measured. By AC50 is commonly meant the concentration giving half of the maximal activity seen.

We go through five compounds from ChEMBL document CHEMBL1201862, “PubChem BioAssay data set” (2004).

In assay [1] the target is DNA damage-inducible transcript 3 protein (Mus musculus, UniProt P35639). In kind it is functional, Cricetulus griseus.
Assay [2] is described as follows: microbe, parasite or virus in culture. In kind it is functional. Particulars: Mycobacterium tuberculosis.
Assay [3] in a line: M. tuberculosis growth inhibition, HTS (AID 449762). It counts as functional.
Assay [4] has as its target T1, Tyrosine-protein phosphatase non-receptor type 7 (Homo sapiens, UniProt P35236).
T1 sequence (P35236 whole entry): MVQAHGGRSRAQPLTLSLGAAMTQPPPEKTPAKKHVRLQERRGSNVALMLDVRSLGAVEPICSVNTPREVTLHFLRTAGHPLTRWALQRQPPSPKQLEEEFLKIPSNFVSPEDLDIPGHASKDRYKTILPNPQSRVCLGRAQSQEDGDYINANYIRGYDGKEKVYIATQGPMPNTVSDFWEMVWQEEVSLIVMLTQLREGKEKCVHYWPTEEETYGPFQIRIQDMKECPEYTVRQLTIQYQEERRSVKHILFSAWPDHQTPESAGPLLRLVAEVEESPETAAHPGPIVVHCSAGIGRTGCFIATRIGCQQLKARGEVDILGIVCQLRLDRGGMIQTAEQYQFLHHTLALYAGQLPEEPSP
Put plainly: HePTP tyrosine phosphatase activity blockers – biochemical, absorbance, leukemia target, primary screen (AID 521). In kind it is functional.

Assay [5] concerns the target T2, Caspase-6 (Homo sapiens, UniProt P55212).
T2 sequence (P55212 whole entry): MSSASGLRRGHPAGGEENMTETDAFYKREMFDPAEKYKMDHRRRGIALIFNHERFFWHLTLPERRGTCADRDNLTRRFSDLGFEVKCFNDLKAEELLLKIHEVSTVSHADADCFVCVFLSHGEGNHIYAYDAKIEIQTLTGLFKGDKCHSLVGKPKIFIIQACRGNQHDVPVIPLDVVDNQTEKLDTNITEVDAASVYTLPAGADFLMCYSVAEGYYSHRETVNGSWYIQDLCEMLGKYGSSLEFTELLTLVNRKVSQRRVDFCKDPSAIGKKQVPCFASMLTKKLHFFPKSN
In words: inhibition of CASP6 peptide cleavage – biochemical, VEID-R110 fluorescence, cherry-pick, dose response (AID 720632).

Assay [6] concerns the target T3, Histone-lysine N-methyltransferase NSD2 (Homo sapiens, UniProt O96028).
T3 sequence (O96028 whole entry): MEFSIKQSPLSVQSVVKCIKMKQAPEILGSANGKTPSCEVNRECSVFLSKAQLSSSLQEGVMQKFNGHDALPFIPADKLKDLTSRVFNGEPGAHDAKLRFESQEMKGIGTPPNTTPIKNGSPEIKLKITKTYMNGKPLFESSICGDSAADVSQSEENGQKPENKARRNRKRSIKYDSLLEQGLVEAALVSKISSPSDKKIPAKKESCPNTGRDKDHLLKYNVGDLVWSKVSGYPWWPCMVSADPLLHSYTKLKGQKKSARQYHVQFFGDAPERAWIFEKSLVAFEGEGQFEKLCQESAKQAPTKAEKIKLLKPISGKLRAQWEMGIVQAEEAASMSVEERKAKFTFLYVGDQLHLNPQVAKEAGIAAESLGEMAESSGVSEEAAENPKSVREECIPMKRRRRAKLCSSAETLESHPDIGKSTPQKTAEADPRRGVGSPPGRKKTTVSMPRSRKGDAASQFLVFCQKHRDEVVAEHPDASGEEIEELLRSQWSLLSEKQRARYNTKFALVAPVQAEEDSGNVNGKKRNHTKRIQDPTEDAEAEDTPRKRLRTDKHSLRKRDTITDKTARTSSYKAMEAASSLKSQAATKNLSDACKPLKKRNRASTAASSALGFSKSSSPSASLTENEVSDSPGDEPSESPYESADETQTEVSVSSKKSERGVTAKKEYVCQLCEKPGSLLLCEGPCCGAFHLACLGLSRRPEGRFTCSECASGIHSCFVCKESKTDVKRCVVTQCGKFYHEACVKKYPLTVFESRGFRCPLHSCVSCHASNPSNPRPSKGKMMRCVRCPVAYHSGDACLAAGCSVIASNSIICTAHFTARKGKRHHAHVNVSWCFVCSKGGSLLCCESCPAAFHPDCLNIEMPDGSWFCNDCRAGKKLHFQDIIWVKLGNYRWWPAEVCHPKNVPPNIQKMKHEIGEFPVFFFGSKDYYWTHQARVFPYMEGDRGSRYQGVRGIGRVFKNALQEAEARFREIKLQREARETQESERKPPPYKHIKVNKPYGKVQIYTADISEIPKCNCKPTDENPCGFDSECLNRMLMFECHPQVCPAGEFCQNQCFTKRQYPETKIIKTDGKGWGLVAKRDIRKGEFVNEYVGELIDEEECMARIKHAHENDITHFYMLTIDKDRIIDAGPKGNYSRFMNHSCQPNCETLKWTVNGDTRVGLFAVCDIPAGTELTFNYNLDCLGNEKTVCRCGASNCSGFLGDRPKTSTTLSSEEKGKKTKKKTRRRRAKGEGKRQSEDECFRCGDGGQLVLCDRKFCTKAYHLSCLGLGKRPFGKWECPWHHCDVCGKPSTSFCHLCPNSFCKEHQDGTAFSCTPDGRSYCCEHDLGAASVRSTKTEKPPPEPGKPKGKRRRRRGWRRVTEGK
In kind it is biochemical.

Assay [7] has as its target Bifunctional protein GlmU (Mycobacterium tuberculosis, UniProt P9WMN3). Put plainly: Inhibitors of Mycobacterial Glucosamine-1-phosphate acetyl transferase (GlmU). Secondary screen. More on the design: species or system Mycobacterium tuberculosis H37Rv.
The target in assay [8] is Large T antigen (Simian virus 40, UniProt P03070). It counts as functional, Betapolyomavirus macacae.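 Also: Confirmatory-stage PubChem screen for compounds that inhibit SV40 T antigen.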
The target of assay [9] is FAD-linked sulfhydryl oxidase ALR (Homo sapiens, UniProt P55789). Put plainly: ALR-catalysed DTT oxidation blockers – biochemical, H2O2 detection, luminescence, cherry-pick, dose response (AID 493248).
Assay [10] can be described thus: CCR5-tropic HIV-1 fusion blockers – cell-based, CCR5-tropic Env, dose response (AID 2279). In kind it is functional.
In assay [11] the target is Heat shock protein HSP 90-alpha (Homo sapiens, UniProt P07900). In words: Luminescence-based dose response biochemical high throughput screening assay for inhibitors of the Heat Shock Protein 90 (HSP90). [Related pubchem assays: 1831 (Summary AID.), 1846 (Confirmation screen.), 1789 (Primary screen.)].
The target of assay [12] is T4, Low molecular weight phosphotyrosine protein phosphatase (Homo sapiens, UniProt P24666).
T4 sequence (P24666 whole entry): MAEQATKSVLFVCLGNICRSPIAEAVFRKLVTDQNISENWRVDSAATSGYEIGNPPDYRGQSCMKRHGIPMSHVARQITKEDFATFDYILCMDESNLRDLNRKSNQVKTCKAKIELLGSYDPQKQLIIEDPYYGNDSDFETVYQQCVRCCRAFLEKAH
Put plainly: inhibition of LMPTP-A enzymatic activity – biochemical, OMFP substrate, fluorescence intensity, set 2, dose response (AID 743307). In kind it is functional.

The target of assay [13] is T4, Low molecular weight phosphotyrosine protein phosphatase. In words: inhibition of human LMPTP enzyme activity – biochemical, absorbance, pNPP substrate, LMPTP-A isoform, set 2, orthogonal assay, dose response (AID 743308). In kind it is functional.

Active and inactive are the calls of the source.

FAD-linked sulfhydryl oxidase ALR, sequence (P55789 whole entry, the tested form may be a part): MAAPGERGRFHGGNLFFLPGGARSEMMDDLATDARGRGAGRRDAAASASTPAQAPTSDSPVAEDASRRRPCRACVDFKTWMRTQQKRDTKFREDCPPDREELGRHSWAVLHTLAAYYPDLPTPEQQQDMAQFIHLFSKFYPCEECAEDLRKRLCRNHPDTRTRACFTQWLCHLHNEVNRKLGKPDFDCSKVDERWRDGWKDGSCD
DNA damage-inducible transcript 3 protein, sequence (P35639 whole entry): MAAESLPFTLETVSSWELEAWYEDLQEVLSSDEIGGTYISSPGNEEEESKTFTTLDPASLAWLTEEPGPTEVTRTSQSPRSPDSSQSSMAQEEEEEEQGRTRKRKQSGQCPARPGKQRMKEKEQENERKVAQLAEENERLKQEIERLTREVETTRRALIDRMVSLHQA
Large T antigen, sequence (P03070 whole entry): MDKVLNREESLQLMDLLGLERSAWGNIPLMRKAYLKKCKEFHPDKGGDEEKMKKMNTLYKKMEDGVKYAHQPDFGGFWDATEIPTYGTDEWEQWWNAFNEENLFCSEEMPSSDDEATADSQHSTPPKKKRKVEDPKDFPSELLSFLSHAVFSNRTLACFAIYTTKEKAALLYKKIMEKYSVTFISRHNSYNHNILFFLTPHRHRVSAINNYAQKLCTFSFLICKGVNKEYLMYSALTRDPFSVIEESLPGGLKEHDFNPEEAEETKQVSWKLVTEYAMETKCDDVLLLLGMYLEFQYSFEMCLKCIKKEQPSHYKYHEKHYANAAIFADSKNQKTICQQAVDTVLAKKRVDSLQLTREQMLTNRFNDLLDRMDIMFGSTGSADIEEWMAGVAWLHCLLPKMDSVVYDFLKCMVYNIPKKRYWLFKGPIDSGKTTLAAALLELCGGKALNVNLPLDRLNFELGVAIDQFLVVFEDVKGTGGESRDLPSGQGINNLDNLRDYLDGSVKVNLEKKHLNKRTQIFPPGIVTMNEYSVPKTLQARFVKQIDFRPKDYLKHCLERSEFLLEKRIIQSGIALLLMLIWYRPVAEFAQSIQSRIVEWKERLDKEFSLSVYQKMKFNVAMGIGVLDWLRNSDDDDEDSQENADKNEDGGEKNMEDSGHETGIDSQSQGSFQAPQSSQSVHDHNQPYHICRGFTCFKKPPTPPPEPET
Bifunctional protein GlmU, sequence (P9WMN3 whole entry): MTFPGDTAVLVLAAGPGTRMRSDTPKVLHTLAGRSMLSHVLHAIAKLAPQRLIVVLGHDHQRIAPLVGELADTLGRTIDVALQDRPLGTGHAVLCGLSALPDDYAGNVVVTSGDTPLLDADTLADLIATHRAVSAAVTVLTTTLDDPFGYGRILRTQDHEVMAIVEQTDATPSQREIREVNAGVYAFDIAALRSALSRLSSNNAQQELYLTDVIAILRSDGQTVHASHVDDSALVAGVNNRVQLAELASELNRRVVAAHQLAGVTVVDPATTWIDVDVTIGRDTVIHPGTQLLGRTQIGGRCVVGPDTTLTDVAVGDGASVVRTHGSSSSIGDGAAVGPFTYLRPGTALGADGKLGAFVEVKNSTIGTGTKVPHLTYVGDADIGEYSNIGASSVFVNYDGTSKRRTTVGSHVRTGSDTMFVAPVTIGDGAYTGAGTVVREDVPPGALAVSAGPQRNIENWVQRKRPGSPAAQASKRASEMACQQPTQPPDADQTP

In the case of `CCOc1ccc(/C=C/C2=Cc3c(sc(NC(=O)CSc4n[nH]c(N)n4)c3C#N)C(C)(C)C2)cc1`, the “Absolute IC50 (CHOP)” value in assay [1] is < 10 µM. Also, the CC50 in assay [2] is 8.74 µM (active). Also, the IC50 in assay [3] was > 100 µM (active).

With `CCOC(=O)COc1ccc(C2NC(C(=O)O)CS2)cc1` (stereo not drawn), the IC50 in assay [4] is recorded as > 100 µM (not active).

`Cc1c(Br)c(=O)oc2c(Br)c(O)c(O)cc12`: the AC50 in assay [5] was 19.5 µM (active); in assay [6], 10.3 µM (active). The IC50 was 55.4 µM (active) in assay [7] and 41.2 µM (active) in [8].

For `COc1cc(/C=N/Nc2ccc(Cl)c(C(=O)O)c2)ccc1OC(=O)c1ccccc1F`, the AC50 in [9] was 5.62 µM (active). The IC50 was 4.45 µM (active) in assay [10] and 1.06 µM (active) in assay [11].

In the case of `c1ccc(-c2nc(NCCCN3CCOCC3)c3ccccc3n2)cc1`, the results for the IC50 in [12] and in [13] were 22.5 µM (inactive) and 48.8 µM (inactive), respectively.
